Reference: US6551831B2, “Dyes and methods of detection of nucleic acid in immature red blood cells” (Coulter International Corp., priority 2000, dated 2003)
Where two headings read alike, the source gives them in different places.

Assays:
calf liver RNA = assay: Fluorescence of dyes in PBS with and without free calf liver RNA (spectrofluorometer); type: binding; details: for Fluorescence enhancement ratio (Bound/Unbound): RNA-bound dye intensity / free dye intensity; for Fluorescence Intensity Unbound to RNA / Fluorescence Intensity Bound to RNA: Table 1, peak emission wavelength; for Fluorescence Intensity Unbound to RNA: dye 2 μM in PBS, no RNA; for Fluorescence Intensity Bound to RNA: dye 2 μM, calf liver RNA 8 mg/ml in PBS
Procedure: For fluorescence measurements, a stock solution of each compound in DMSO was made (as described in Example 1D). A portion of this stock solution was diluted in PBS to obtain a dye concentration of 2 μm. 1 ml of this dilute solution was placed in a glass cuvette and the fluorescence spectra obtained exciting the dye at its excitation wavelength maximum. Next, 1 ml of a solution of free calf liver RNA (Sigma) dissolved in PBS at a concentration of 8 mg/ml, and a measured volume of the dye stock solution was mixed to obtain a dye concentration of 2 μM in the RNA solution. This dye solution diluted in the RNA solution was placed in a glass cuvette and the fluorescence spectra measured using the same excitation as in the previous measurement.
These intensities were obtained at the peak emission wavelengths of each fluorescence spectra measured as described above. FIG. 1C compares the fluorescence intensities of the RNA-bound and unbound dyes in graphical form.

Calf thymus DNA = assay: Fluorescence of dyes in PBS with and without free calf thymus DNA, excitation 633 nm; type: binding; details: Table 5; for Fluorescence Intensity Unbound to DNA: Group-III dyes in PBS, peak of emission spectrum; for Fluorescence Intensity Bound to DNA 0.5 mg/ml: Group-III dyes
Procedure: To compare the relative fluorescence intensities of the dyes in bound and unbound states, fluorescence measurements were conducted in a spectrofluorometer by exciting each dye solution at 633 nm under appropriate conditions, recording the fluorescence spectrum of each sample, and measuring the intensities at the peak of these fluorescence spectra. […] Next, the fluorescence spectrum of the dye solution was measured by illuminating the sample at 633 nm.

Torula yeast RNA = assay: Fluorescence of dyes in PBS with and without free Torula yeast RNA, excitation 633 nm; type: binding; details: Table 4, Group-III dyes; for Fluorescence Intensity Unbound to RNA: conc. 2 μm in PBS, peak of emission spectrum; for Fluorescence Intensity Bound to RNA 1 mg/ml: conc. 2 μm
Procedure: To compare the relative fluorescence intensities of the dyes in bound and unbound states, fluorescence measurements were conducted in a spectrofluorometer by exciting each dye solution at 633 nm under appropriate conditions, recording the fluorescence spectrum of each sample, and measuring the intensities at the peak of these fluorescence spectra. […] A portion of the stock solution for the Dye-1 was diluted in PBS to obtain a dye concentration of […]. […] The fluorescence spectrum of this dye solution in presence of RNA was measured by illuminating the sample at 633 nm.

reticulocytes [1] = assay: Rapid staining of reticulocytes in whole blood with dye in rapid staining composition, flow cytometry (HeNe 632.8 nm); type: cell-based; details: 5 μM dye, analyzed immediately
Procedure: Approximately 11.5 mW of 632.8 nm laser light from the above laser was incident on the beam shaping optics of the flow cytometer. Forward light scatter (FS), side scatter (SS) and one fluorescence (FL) parameter in the orthogonal direction were measured to analyze the red cells. The red cells were gated on a SS vs. FS dotplot. A fixed gate was then used to enumerate […] on a FL vs. FS dotplot. […] The […] reagent is a solution comprising about 20 μg/ml Dodecyl-β-D-maltoside and 0.05% Proclin 300 in PBS at about pH 7.4 and about 290 mOsm. […] The mixture was then aspirated into the XLTM flow cytometer containing the red HeNe laser for analysis. […] The mixture was then aspirated into the XLTM flow cytometer containing the red HeNe laser for analysis. […] The […] reagent is a solution comprising about 20 μg/ml Dodecyl-β-D-maltoside and 0.05% Proclin 300 in PBS at about pH 7.4 and about 290 mOsm. […] The […] reagent is a solution comprising about 20 μg/ml Dodecyl-β-D-maltoside and 0.05% Proclin 300 in PBS at about pH 7.4 and about 290 mOsm. […] The […] reagent is a solution comprising about 20 μg/ml Dodecyl-β-D-maltoside and 0.05% Proclin® 300 in PBS at about pH 7.4 and about 290 mOsm.

reticulocytes [2] = test system: reticulocytes

Cc1ccc2c(c1)sc(/C=C/C=C1\C=CN(C(C)C)c3ccccc31)[n+]2CCO [ReticRed5]
Fluorescence enhancement ratio (Bound/Unbound) (calf liver RNA): 292.884
Fluorescence Intensity Unbound to RNA (calf liver RNA): 2.24
Fluorescence Intensity Bound to RNA (calf liver RNA): 656.06

COc1cc(CN2C=C/C(=C\C=C\c3sc4ccccc4[n+]3CCO)c3ccccc32)cc(OC)c1 [Dye-3]
Fluorescence Intensity Unbound to DNA (Calf thymus DNA): 15
Fluorescence Intensity Bound to DNA 0.5 mg/ml (Calf thymus DNA): 400
Fluorescence Intensity Unbound to RNA (Torula yeast RNA): 10
Fluorescence Intensity Bound to RNA 1 mg/ml (Torula yeast RNA): 328
percentage of reticulocytes enumerated (reticulocytes [1]; Example 9 Run 7, normal donor): 2.3%
percentage of reticulocytes enumerated (reticulocytes [1]; Example 9 Run 8, abnormal donor (reference 12%)): approximately 14.6%
percentage of reticulocytes enumerated (reticulocytes [1]; Example 9 Run 9, another abnormal donor (reference 27%)): approximately 24%

C[n+]1c(/C=C/C=C2\C=CN(Cc3ccccc3B(O)O)c3ccccc32)sc2ccccc21 [Dye-6]
Fluorescence Intensity Unbound to DNA (Calf thymus DNA): 4
Fluorescence Intensity Bound to DNA 0.5 mg/ml (Calf thymus DNA): 380
Fluorescence Intensity Unbound to RNA (Torula yeast RNA): 6
Fluorescence Intensity Bound to RNA 1 mg/ml (Torula yeast RNA): 410

OCC[n+]1c(/C=C/C=C2\C=CN(Cc3ccccc3)c3ccccc32)sc2ccccc21 [Dye-5]
Fluorescence Intensity Unbound to DNA (Calf thymus DNA): 10
Fluorescence Intensity Bound to DNA 0.5 mg/ml (Calf thymus DNA): 660
Fluorescence Intensity Unbound to RNA (Torula yeast RNA): 10
Fluorescence Intensity Bound to RNA 1 mg/ml (Torula yeast RNA): 420

CCNc1cc2[s+]c3cc(NCC)c(C)cc3nc2cc1C.[Cl-] [New Methylene Blue]
retic percentage (reticulocytes [2]; Gen*S method, blood sample of Example 3): 6.7%
retic percentage (reticulocytes [2]; normal donor of Example 4 Run 3, commercially available clinical hematology analyzer): 0.95%

Cc1ccc2c(c1)sc(/C=C/C=C1\C=CN(CCO)c3ccccc31)[n+]2CCO [ReticRed6]
Fluorescence enhancement ratio (Bound/Unbound) (calf liver RNA): 225.164
Fluorescence Intensity Unbound to RNA (calf liver RNA): 2.75
Fluorescence Intensity Bound to RNA (calf liver RNA): 619.2
